From patent US20090221523A1 (priority 2005, published 2009)
≈ marks a conversion by molar mass, not a printed value. Where “and” joins values, the source holds several entries; their conditions need not be identical. Equal entries are not always repeated. Where two headings read alike, the source gives them in different places. Marks after values point to notes of the source that are not given here.

Experiments:
[1] = test system: ΔcrmA (TK+) CV strain; test: microbe, parasite or virus in culture; type: cell-based; details: Cowpox virus, HFF, read-out: EC50 CV (Δcrm lacZ) TK+
[2] = test system: HFF cells; test: cells; type: cell-based; details: Homo sapiens, 72 h, read-out: IC50, 50% inhibition of cell proliferation
[3] = test system: cowpox virus (Brighton strain); test: microbe, parasite or virus in culture; type: cell-based; details: HFF, read-out: CV (Brighton) EC50
[4] = test system: HSV-1 TK− strain DM2.1; test: microbe, parasite or virus in culture; type: cell-based, herpes simplex virus; details: Human alphaherpesvirus 1, HFF, read-out: EC50 HSV-1 (DM2.1) TK−
[5] = test system: Human herpesvirus 8; details: Zhu, et al. 2005; cited from earlier work
[6] = test system: human cytomegalovirus; type: cell-based
[7] = test system: cowpox Brighton Strain; parameters: species or system BALB/c mice; details: mouse, in vivo
[8] = test system: HSV-1 strain E377; parameters: species or system BALB/c mice; details: mouse, in vivo
[9] = test system: vaccinia virus (Copenhagen Strain); test: microbe, parasite or virus in culture; type: cell-based; details: Orthopoxvirus vaccinia, HFF, read-out: Vaccinia (Copenhagen) EC50
[10] = test system: HFF cells; details: human
[11] = mouse, in vivo
[12] = test system: TK:GFP lacZ (TK−) CV strain; test: microbe, parasite or virus in culture; type: cell-based; details: Cowpox virus, HFF, read-out: EC50 CV (TK:gpf lacZ)
[13] = test system: Epstein-Barr virus; test: microbe, parasite or virus in culture; type: cell-based; details: human gammaherpesvirus 4, read-out: EC50, inhibition of Epstein-Barr virus replication
[14] = test system: HSV-1 strain F; test: microbe, parasite or virus in culture; type: cell-based, herpes simplex virus; details: Human alphaherpesvirus 1, HFF, read-out: EC50 HSV-1 (F) TK+
[15] = test system: vaccinia virus (Copenhagen Strain); test: microbe, parasite or virus in culture; type: cell-based
[16] = test system: WR strain of VV; test: microbe, parasite or virus in culture; type: cell-based; details: Orthopoxvirus vaccinia, HFF, 24 h, read-out: EC50 for inhibiting VV DNA synthesis
[17] = in vitro; details: human
[18] = test system: human herpesvirus 6; type: cell-based; details: betaherpesvirus without TK activity
[19] = test system: VV strain WR; parameters: species or system BALB/c mice; details: mouse, in vivo, ip
[20] = test system: vaccinia (WR strain); parameters: species or system mice; Mean Lung Virus Titer: unit not given here; details: mouse, in vivo
[21] = test system: vaccinia WR strain; parameters: species or system BALB/c mice; details: mouse, in vivo
[22] = test system: cowpox virus (Brighton strain); test: microbe, parasite or virus in culture; type: cell-based; details: HFF, read-out: Cowpox (Brighton) EC50
[23] = test system: vaccinia (HID strain); parameters: species or system mice; Mean Lung Virus Titer: unit not given here; details: mouse, in vivo
[24] = test system: vaccinia IHD strain; parameters: species or system BALB/c mice; details: mouse, in vivo
[25] = test system: cowpox Brighton Strain; parameters: species or system BALB/c mice; details: mouse, in vivo; for MDD, mean day of death / Mortality % / Mortality No. dead/total no.: ip

## Cc1cn([C@H]2C[C@H](O)[C@]3(CO)C[C@H]23)c(=O)[nH]c1=O [N-MCT, North-methanocarbathymidine]
[1]
  EC50: 2 ± 2 µg/mL (≈ 7.93 µM)
[2]
  IC50: 29 ± 5.4 µg/mL (≈ 115 µM)
[3]
  EC50: 1.5 ± 1.2 µg/mL (≈ 5.95 µM)
[4]
  EC50: 6.3 ± 3.9 µg/mL (≈ 25 µM)
[5]
  Sensitivity of human herpesvirus 8 to the drug: sensitive
[6]
  Activity against human cytomegalovirus: inactive
[7]
  Number of Survivors: 9/10 and 2/10 and 1/10
[8]
  MDD, mean day of death: 20 days
  Mortality %: 0% and 7%
  Mortality No. dead/total no.: 0/15 and 1/15
[9]
  EC50: 0.73 µg/mL (≈ 2.89 µM)
[10]
  CC50: >100 ± 0 µg/mL
[11]
  Tolerability in mice: well tolerated
[12]
  EC50: 28 ± 2.3 µg/mL (≈ 111 µM)
[13]
  EC50: 0.45 µg/mL (≈ 1.78 µM)
[14]
  EC50: 0.07 ± 0.02 µg/mL (≈ 0.277 µM)
[15]
  VV (Copenhagen) EC50: 0.55 ± 0.13 µg/mL
[15]; Orthopoxvirus vaccinia, HFF, read-out: VV (Copenhagen) EC50
  EC50: 0.6 µg/mL (≈ 2.38 µM)
[16]
  EC50: 1 µg/mL (≈ 3.96 µM)
[17]
  CC50: > 100 µg/mL
[18]
  Activity against human herpesvirus 6: inactive
[19]; 5.6 mg/kg
  MDD, mean day of death: 8.2 days
  Mortality %: 80%
  Mortality No. dead/total no.: 12/15
[19]; 16.7 mg/kg
  MDD, mean day of death: 7.5 days
  Mortality %: 13%
  Mortality No. dead/total no.: 2/15
[19]; 50 mg/kg
  Mortality %: 0%
  Mortality No. dead/total no.: 0/15
[20]
  MDD (mean day of death ± SD of mice that died prior to day 21): 8.3 ± 0.6 days and 11.2 ± 4.7 days
  Mean Lung Virus Titer: 7.9 ± 0.2 and 8.2 ± 0.1 and 8.3 ± 0.2
  Survivors/Total: 7/10*** and 4/10* and 1/10
[21]
  Number of Survivors: 0/10
[22]
  EC50: 0.31 µg/mL (≈ 1.23 µM)
[23]
  MDD, mean day of death: >21*** day
  Mean Lung Virus Titer: 7.1 ± 0.3 and 8.1 ± 0.1 and 8.3 ± 0.1
  Survivors/Total: 10/10***
[24]
  Mean Day of Death: 8.7 days
  Mortality Number: 0/15 and 3/15
[24]; 5.6 mg/kg
  Animals that survived: 80%
[24]; ip, 5.6 mg/kg
  MDD, mean day of death: 8.7 days
  Mortality %: 20%
  Mortality No. dead/total no.: 3/15
[24]; ip, 16.7 mg/kg
  Mortality %: 0%
  Mortality No. dead/total no.: 0/15
[24]; ip, 50 mg/kg
  Mortality %: 0%
  Mortality No. dead/total no.: 0/15
[25]
  Mean Day of Death: 14.0 days and 7.5 days and 13.3 days
  Mortality Number: 6/15 and 2/15 and 3/15
[25]; 5.6 mg/kg
  MDD, mean day of death: 14.0 days
  Mortality %: 40%
  Mortality No. dead/total no.: 6/15
[25]; 16.7 mg/kg
  MDD, mean day of death: 13.3 days
  Mortality %: 20%
  Mortality No. dead/total no.: 3/15
[25]; 50 mg/kg
  MDD, mean day of death: 7.5 days
  Mortality %: 13%
  Mortality No. dead/total no.: 2/15
